The values that follow come from US20230203060A1 (GENFLEET THERAPEUTICS (SHANGHAI) INC., priority 2020, published 2023).

What all share (type): cell-based, human
The subject of assay [1] is KRAS G12C mutant MIA PaCa-2 cells. Kind of assay: Cell proliferation inhibition experiment, 3D spheroid, CellTiter-Glo, MIA PaCa-2. The conditions noted are these: Homo sapiens, MIA PaCa-2, 120 h, 3D cell model in 384-well spheroid plate, 5 days, CellTiter-Glo; read-out: MIA-PaCa2 IC50. In outline: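 200 MIA PaCa-2 cells/well grown overnight as 3D spheroids, then exposed to 3.16-fold compound dilutions (0.1% DMSO final) for 5 days. Viability read by CellTiter-Glo luminescence; inhibition calculated against DMSO and medium-only controls, and IC50 fitted by four-parameter model.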

Assay [2] concerns KRAS G12C mutant NCI-H358 cells. In words: Cell proliferation inhibition experiment, 3D spheroid, CellTiter-Glo, NCI-H358. The conditions noted are these: Homo sapiens, NCI-H358, 120 h, NCI-H358 (KRAS G12C mutant) 3D spheroid, 5 days with compound, CellTiter-Glo; read-out: H358 IC50. In outline:
(§1)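 Spheroids grown overnight from 800 H358 or 400 A549 cells were treated for 5 days with serially diluted compound (3.16-fold, 0.1% DMSO, 2% FBS). ATP-based luminescence gave IC50.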

The test system of assay [3] is A549 cells (KRAS G12S mutant). Kind of assay: Cell proliferation inhibition experiment, 3D spheroid, CellTiter-Glo, A549. As to conditions: Homo sapiens, A549, 120 h, A549 (KRAS G12S mutant) 3D spheroid, 5 days with compound, CellTiter-Glo; read-out: A549 IC50. In outline: as §1
For orientation: In ATP-based viability assays light output follows the ATP content of the culture.

Regarding `C=CC(=O)N1CCN2C(=O)c3c(N4CC(N(C)C)CC4(C)C)nc(-c4ccccc4F)c(Cl)c3OC[C@H]2C1` (single isomer, unassigned) [Z453-2], the IC50 (commonly the concentration at which inhibition is half-maximal) in assay [1] is 0.0452 µM; in assay [2] it was 0.0166 µM; in assay [3], 6.71 µM.
The matching figures for `C=CC(=O)N1CCN2C(=O)c3c(N4C[C@@H](N5CCN(C)CC5)CC4(C)C)nc(-c4ccccc4F)c(Cl)c3OC[C@H]2C1` (single isomer, unassigned) [Z454-1]: 0.0035 µM, 0.0012 µM and 2.63 µM.
With `C=CC(=O)N1CCN2C(=O)c3c(N4C[C@H](N5CCN(C)CC5)CC4(C)C)nc(-c4ccccc4F)c(Cl)c3OC[C@H]2C1` (single isomer, unassigned) [Z454-2], the values for the IC50 in assay [1], in assay [2] and in assay [3] were 0.0168 µM, 0.0072 µM and 2.66 µM, respectively.
The matching figures for `C=CC(=O)N1CCN2C(=O)c3c(N4C[C@@H](C(=O)O)CC4(C)C)nc(-c4c(O)cccc4F)c(Cl)c3OC[C@H]2C1` (single isomer, unassigned) [Z458-1]: greater than 1 µM, 0.189 µM and greater than 10 µM.
With `C=CC(=O)N1CCN2C(=O)c3c(N4CC(N5CCOCC5)CC4(C)C)nc(-c4ccccc4F)c(Cl)c3OC[C@H]2C1` (single isomer, unassigned) [Z468-1], the IC50 in assay [1] turned out to be 0.016 µM; in assay [2], 0.004 µM; in assay [3] it was 3.28 µM.
The matching figures for `C=CC(=O)N1CCN2C(=O)c3c(N4C[C@@H](N5CCN(C)CC5)CC4(C)C)nc(-c4c(O)cccc4F)c(Cl)c3OC[C@H]2C1` (single isomer, unassigned) [Z469-1]: 0.0006 µM, 0.0005 µM and 5.23 µM.
On to `C=CC(=O)N1CCN2C(=O)c3c(N4C[C@H](N5CCN(C)CC5)CC4(C)C)nc(-c4c(O)cccc4F)c(Cl)c3OC[C@H]2C1` (single isomer, unassigned) [Z469-2], for which the IC50 in assay [1] was 0.004 µM; in assay [2], 0.002 µM; in assay [3], 8.46 µM.
The matching figures for `C=CC(=O)N1CCN2C(=O)c3c(N4C[C@@H](N5CCC5)CC4(C)C)nc(-c4ccccc4F)c(Cl)c3OC[C@H]2C1` (single isomer, unassigned) [Z471-1]: 0.042 µM, 0.007 µM and 2.77 µM.
The matching figures for `C=CC(=O)N1CCN2C(=O)c3c(N4C[C@@H](N(C)C)CC4(C)C)nc(-c4cccc(C)c4F)c(Cl)c3OC[C@H]2C1` (single isomer, unassigned) [Z472-1]: 0.074 µM, 0.016 µM and 1.74 µM.
The matching figures for `C=CC(=O)N1CCN2C(=O)c3c(N4C[C@H](N(C)C)CC4(C)C)nc(-c4cccc(C)c4F)c(Cl)c3OC[C@H]2C1` (single isomer, unassigned) [Z472-2]: 0.053 µM, 0.008 µM and 1.65 µM.
Consider `C=CC(=O)N1CCN2C(=O)c3c(N4C[C@@H](N5CCN(C)CC5)CC4(C)C)nc(-c4ccccc4F)c(F)c3OC[C@H]2C1` (single isomer, unassigned) [Z474-1], for which the IC50 in assay [1] was determined as 0.013 µM; in assay [2], 0.0083 µM; in assay [3] it was 7.95 µM.
The matching figures for `C=CC(=O)N1CCN2C(=O)c3c(N4C[C@H](N(C)C)CC4(C)C)nc(-c4c(F)ccc(F)c4O)c(Cl)c3OC[C@H]2C1` (single isomer, unassigned) [Z475-2]: 0.015 µM, 0.008 µM and 5.87 µM.
The matching figures for `C=CC(=O)N1CCN2C(=O)c3c(N4C[C@@H](N(C)CC(F)(F)F)CC4(C)C)nc(-c4ccccc4F)c(Cl)c3OC[C@H]2C1` (single isomer, unassigned) [Z491]: 0.007 µM, 0.0014 µM and 4.53 µM.
With `C=CC(=O)N1CCN2C(=O)c3c(N4C[C@H](N(C)CC(F)(F)F)CC4(C)C)nc(-c4ccccc4F)c(Cl)c3OC[C@H]2C1` (single isomer, unassigned) [Z493], the values for the IC50 in assay [1], in assay [2] and in assay [3] were 0.112 µM, 0.027 µM and 7.25 µM, respectively.
The matching figures for `C=CC(=O)N1CCN2C(=O)c3c(N4C[C@H](N5CC(F)(F)C5)CC4(C)C)nc(-c4ccccc4F)c(Cl)c3OC[C@H]2C1` (single isomer, unassigned) [Z525-1]: 0.478 µM, 0.281 µM and 2.84 µM.
The matching figures for `C=CC(=O)N1CCN2C(=O)c3c(N4C[C@@H](N5CC(F)(F)C5)CC4(C)C)nc(-c4ccccc4F)c(Cl)c3OC[C@H]2C1` (single isomer, unassigned) [Z525-2]: 0.014 µM, 0.0078 µM and 5.74 µM.
The matching figures for `C=CC(=O)N1CCN2C(=O)c3c(N4C[C@H](N5CC(C(F)(F)F)C5)CC4(C)C)nc(-c4ccccc4F)c(Cl)c3OC[C@H]2C1` (single isomer, unassigned) [Z608-1]: 0.331 µM, 0.0995 µM and 2.95 µM.
For `C=CC(=O)N1CCN2C(=O)c3c(N4C[C@H](N5CC(C#N)C5)CC4(C)C)nc(-c4ccccc4F)c(Cl)c3OC[C@H]2C1` (single isomer, unassigned) [Z637-1], the IC50 in assay [1] turned out to be 0.549 µM; in assay [2], 0.125 µM; in assay [3] it was 2.97 µM.
The matching figures for `C=CC(=O)N1CCN2C(=O)c3c(N4C[C@@H](N5CC(C#N)C5)CC4(C)C)nc(-c4ccccc4F)c(Cl)c3OC[C@H]2C1` (single isomer, unassigned) [Z637-2]: 0.01 µM, 0.0045 µM and 2.52 µM.
The matching figures for `C=CC(=O)N1CCN2C(=O)c3c(N4C[C@@H](N(C)C)CC4(C)C)nc(-c4ccccc4)c(Cl)c3OC[C@H]2C1` (single isomer, unassigned) [Z655-1]: 0.113 µM, 0.038 µM and 3.32 µM.
The matching figures for `C=CC(=O)N1CCN2C(=O)c3c(N4C[C@H](N(C)CCO)CC4(C)C)nc(-c4ccccc4F)c(Cl)c3OC[C@H]2C1` (single isomer, unassigned) [Z658-2]: 0.031 µM, 0.012 µM and 4.72 µM.
As for `C=CC(=O)N1CCN2C(=O)c3c(N4C[C@@H](N(C)CC(F)F)CC4(C)C)nc(-c4ccccc4F)c(Cl)c3OC[C@H]2C1` (single isomer, unassigned) [Z659-1], the IC50 was determined as 0.016 µM in assay [1], 0.005 µM in assay [2] and 6.18 µM in assay [3].
The matching figures for `C=CC(=O)N1CCN2C(=O)c3c(N4CC(N(C)CC(F)F)CC4(C)C)nc(-c4ccccc4F)c(Cl)c3OCC2C1` (single isomer, unassigned) [Z659-2]: 0.004 µM, 0.001 µM and 2.66 µM.
As to `C=CC(=O)N1CCN2C(=O)c3c(N4C[C@@H](N(C)CCF)CC4(C)C)nc(-c4ccccc4F)c(Cl)c3OC[C@H]2C1` (single isomer, unassigned) [Z660-1], the IC50 in assay [1] was found to be 0.0077 µM; in assay [2] it was 0.0017 µM; in assay [3] it was 3.25 µM.
Take `C=CC(=O)N1CCN2C(=O)c3c(N4C[C@@H](NC)CC4(C)C)nc(-c4ccccc4F)c(Cl)c3OC[C@H]2C1` (single isomer, unassigned) [Z661-1]: the values for the IC50 in assay [1], in assay [2] and in assay [3] were 0.014 µM, 0.006 µM and 2.9 µM, respectively.
The matching figures for `C=CC(=O)N1CCN2C(=O)c3c(N4C[C@@H](NCC(F)(F)F)CC4(C)C)nc(-c4ccccc4F)c(Cl)c3OC[C@H]2C1` (single isomer, unassigned) [Z662-1]: 0.011 µM, 0.003 µM and 4.09 µM.
The matching figures for `C=CC(=O)N1CCN2C(=O)c3c(N[C@H](C)c4ccccc4)nc(-c4c(O)cccc4F)c(Cl)c3OC[C@H]2C1` [Z28, (6aR)-8-acryloyl-4-chloro-3-(2-fluoro-6-hydroxyphenyl)-1-(((R)-1-phenylethyl)amino)-6,6a,7,8,9,10-hexahydro-12H-pyrazino[2,1-c]pyrido[3,4-f][1,4]oxazepin-12-one]: 0.15 µM, 0.062 µM and greater than 5 µM.
The matching figures for `C=CC(=O)N1CCN2C(=O)c3c(N4CCOC[C@@H]4C)nc(-c4c(O)cccc4F)c(Cl)c3OC[C@H]2C1` [Z32]: 0.011 µM, 0.009 µM and greater than 5 µM.
`C=CC(=O)N1CCN2C(=O)c3c(N4CCOC(C)(C)C4)nc(-c4c(O)cccc4F)c(Cl)c3OC[C@H]2C1` [Z37, (6aR)-8-acryloyl-4-chloro-1-(2,2-dimethylmorpholino)-3-(2-fluoro-6-hydroxyphenyl)-6,6a,7,8,9,10-hexahydro-12H-pyrazino[2,1-c]pyrido[3,4-f][1,4]oxazepin-12-one]: the values for the IC50 in assay [1], in assay [2] and in assay [3] were 0.012 µM, 0.009 µM and greater than 30 µM, respectively.
The matching figures for `C=CC(=O)N1CCN2C(=O)c3c(N4CCC5CC54)nc(-c4c(O)cccc4F)c(Cl)c3OC[C@H]2C1` (stereo partly drawn) [Z39, (6aR)-8-acryloyl-1-(2-azabicyclo[3.1.0]hexart-2-yl)-4-chloro-3-(2-fluoro-6-hydroxyphenyl)-6,6a,7,8,9,10-hexahydro-12H-pyrazino[2,1-c]pyrido[3,4-f][1,4]oxazepin-12-one]: 0.02 µM, 0.009 µM and 3.05 µM.
